Blank lines part the entries; values can stand above or below the compound they belong to. Numbered stars: 1 amine (or outer) side, 2 acyl side, 3 side chain; on linkers, the order of the positions; unused ones are H or OH. Square brackets hold non-standard residues; d marks the D form. Peptide text beside a SMILES is read from it. * marks the point of attachment. ξ: configuration not given here. X2 = COC(=O)/C=C/CC[C@H](N[*:1])C(=O)[*:2]; Ile(3ξ) = CCC(C)[C@H](N)C(=O)O; X4 = CCOC(=O)c1nc(C(=O)*)cs1; X3 = O=C(c1nc2ccccc2[nH]1)*; Nle = CCCC[C@H](N)C(=O)O; X1 = Cc1nc(C(=O)*)cs1
Assays:
[1] = molecular target: T1, Coagulation factor XIII A chain (Homo sapiens, UniProt P00488); assay: Inhibition of human coagulation factor XIIIa
T1 sequence (P00488 whole entry): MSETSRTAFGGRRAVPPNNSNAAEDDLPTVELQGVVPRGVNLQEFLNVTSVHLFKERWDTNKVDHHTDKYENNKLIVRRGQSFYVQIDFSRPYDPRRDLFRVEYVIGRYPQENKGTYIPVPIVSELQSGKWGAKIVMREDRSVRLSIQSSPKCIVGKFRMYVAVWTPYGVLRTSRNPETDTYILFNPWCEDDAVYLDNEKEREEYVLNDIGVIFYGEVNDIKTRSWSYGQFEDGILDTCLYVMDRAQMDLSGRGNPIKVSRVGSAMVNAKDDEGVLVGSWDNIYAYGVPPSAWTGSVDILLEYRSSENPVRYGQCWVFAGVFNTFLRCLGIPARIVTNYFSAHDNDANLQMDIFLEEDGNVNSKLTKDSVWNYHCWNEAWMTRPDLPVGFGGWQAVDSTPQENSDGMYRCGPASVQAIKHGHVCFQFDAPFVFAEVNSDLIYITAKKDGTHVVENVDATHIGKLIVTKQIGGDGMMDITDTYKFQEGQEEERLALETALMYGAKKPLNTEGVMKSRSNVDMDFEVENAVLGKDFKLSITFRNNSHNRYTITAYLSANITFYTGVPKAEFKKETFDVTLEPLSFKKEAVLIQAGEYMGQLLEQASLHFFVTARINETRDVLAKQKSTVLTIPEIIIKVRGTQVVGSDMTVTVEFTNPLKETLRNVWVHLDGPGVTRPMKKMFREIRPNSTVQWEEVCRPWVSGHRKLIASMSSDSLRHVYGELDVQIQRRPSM

[2] = molecular target: T1, Coagulation factor XIII A chain; assay: Inhibition of human plasma coagulation factor XIIIa by fluorescence spectrophotometeric assay; format: cell-free
Canis familiaris [3] = assay: Antithrombotic activity in Mongrel dog model of electrically-induced coronary artery thrombosis assessed as re-occlusion rate at 0.1 mg/kg,iv pre-administered for 15 mins followed by electric impulse stimulation and t-PA and measured after 90 mins; format: functional, Canis lupus familiaris; conditions: time 105 min, 1.75 h
Canis familiaris [4] = assay: Antithrombotic activity in Mongrel dog model of electrically-induced coronary artery thrombosis assessed as reduction in residual thrombus mass at 0.1 mg/kg,iv pre-administered for 15 mins followed by electric impulse stimulation and t-PA and measured after 90 mins; format: functional, Canis lupus familiaris; conditions: time 105 min, 1.75 h
Canis familiaris [5] = assay: Antithrombotic activity in Mongrel dog model of electrically-induced coronary artery thrombosis assessed as time to reperfusion at 0.1 mg/kg,iv pre-administered for 15 mins followed by electric impulse stimulation and t-PA and measured after 90 mins; format: functional, Canis lupus familiaris; conditions: time 105 min, 1.75 h
Canis familiaris [6] = assay: Antithrombotic activity in Mongrel dog model of electrically-induced coronary artery thrombosis assessed as time to occlusion at 0.1 mg/kg,iv pre-administered for 15 mins followed by electric impulse stimulation and t-PA and measured after 90 mins; format: functional, Canis lupus familiaris; conditions: time 105 min, 1.75 h
[7] = Ratio of rate constant for human plasma coagulation factor XIIIa to rate constant for Glutathione (unknown origin)
[8] = molecular target: T2, Coagulation factor XIII A chain (Homo sapiens) (UniProt P00488); assay: Binding affinity to human plasma coagulation factor XIIIa assessed as rate constant in presence of GSH by DTNB based UV-fluorescence assay; format: cell-free
T2 sequence (whole entry): T1 sequence (P00488 whole entry)

[9] = molecular target: T3, Coagulation factor XIII A chain (Bos taurus) (UniProt P12260); assay: Inhibition of bovine plasma coagulation factor XIIIa assessed as threshold concentration by measuring insoluble fibrin per total fibrin incubated for 30 mins in presence of bovine fibrin by biuret method; format: cell-free
T3 sequence (whole entry): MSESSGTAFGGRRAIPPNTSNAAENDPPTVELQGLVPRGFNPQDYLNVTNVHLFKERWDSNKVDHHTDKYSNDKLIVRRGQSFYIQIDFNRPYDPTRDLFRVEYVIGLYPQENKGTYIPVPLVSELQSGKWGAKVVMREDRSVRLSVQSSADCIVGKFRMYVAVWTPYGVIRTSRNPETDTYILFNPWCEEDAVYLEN

[10] = Half life in New Zealand White rabbit at iv dosed upto 8 hrs by HPLC method; format: ADME, organism-based, Oryctolagus cuniculus; conditions: in vivo
[11] = Total clearance in New Zealand White rabbit at iv dosed upto 8 hrs by HPLC method; format: ADME, organism-based, Oryctolagus cuniculus; conditions: in vivo
[12] = Plasma concentration in New Zealand White rabbit at iv dosed upto 8 hrs by HPLC method; format: ADME, organism-based, Oryctolagus cuniculus
[13] = molecular target: T1, Coagulation factor XIII A chain; assay: Inhibition of human plasma coagulation factor XIIIa; format: cell-free
[14] = molecular target: T1, Coagulation factor XIII A chain; assay: Inhibition of human coagulation factor XIIIa assessed as inhibition of factor 13a mediated crosslinking of fibronectin-collagen incubated for 2 hrs by SDS-PAGE analysis
[15] = Inhibition of transglutaminase in guinea pig liver assessed as inhibition constant using Z-Gln-Gly as substrate by Michaelis-Menten analysis; format: tissue-based, Cavia porcellus
[16] = molecular target: T1, Coagulation factor XIII A chain; assay: Inhibition of human recombinant coagulation factor XIIIa
Homo sapiens [17] = species on record: Homo sapiens; assay: Selectivity index, ratio of IC50 for inhibition of human coagulation factor XIIIa to IC50 for inhibition of human Factor Xa
Homo sapiens [18] = species on record: Homo sapiens; assay: Selectivity index, ratio of IC50 for inhibition of human coagulation factor XIIIa to IC50 for inhibition of human alpha-thrombin
[19] = Selectivity index, ratio of IC50 for inhibition of human coagulation factor XIIIa to IC50 for inhibition of papain (unknown origin)
[20] = molecular target: T2, Coagulation factor XIII A chain (Homo sapiens); assay: Inhibition of human coagulation factor XIIIa assessed as maximal efficacy upto 20 nM
[21] = molecular target: T2, Coagulation factor XIII A chain (Homo sapiens); assay: Inhibition of human coagulation factor XIIIa assessed as enzyme residual activity at 100 uM in presence of polybrene by Spectrofluorometric assay
[22] = molecular target: T2, Coagulation factor XIII A chain (Homo sapiens); assay: Inhibition of human coagulation factor XIIIa assessed as maximal inhibition of factor 13a mediated fibrin polymerization at 5 to 500 uM incubated for 24 hrs by SDS-PAGE analysis; conditions: dose 5-500 µM
[23] = molecular target: T4, Protein-glutamine gamma-glutamyltransferase (Homo sapiens, UniProt P21980); assay: Inhibition of tissue transglutaminase (unknown origin); format: tissue-based
T4 sequence (P21980 whole entry): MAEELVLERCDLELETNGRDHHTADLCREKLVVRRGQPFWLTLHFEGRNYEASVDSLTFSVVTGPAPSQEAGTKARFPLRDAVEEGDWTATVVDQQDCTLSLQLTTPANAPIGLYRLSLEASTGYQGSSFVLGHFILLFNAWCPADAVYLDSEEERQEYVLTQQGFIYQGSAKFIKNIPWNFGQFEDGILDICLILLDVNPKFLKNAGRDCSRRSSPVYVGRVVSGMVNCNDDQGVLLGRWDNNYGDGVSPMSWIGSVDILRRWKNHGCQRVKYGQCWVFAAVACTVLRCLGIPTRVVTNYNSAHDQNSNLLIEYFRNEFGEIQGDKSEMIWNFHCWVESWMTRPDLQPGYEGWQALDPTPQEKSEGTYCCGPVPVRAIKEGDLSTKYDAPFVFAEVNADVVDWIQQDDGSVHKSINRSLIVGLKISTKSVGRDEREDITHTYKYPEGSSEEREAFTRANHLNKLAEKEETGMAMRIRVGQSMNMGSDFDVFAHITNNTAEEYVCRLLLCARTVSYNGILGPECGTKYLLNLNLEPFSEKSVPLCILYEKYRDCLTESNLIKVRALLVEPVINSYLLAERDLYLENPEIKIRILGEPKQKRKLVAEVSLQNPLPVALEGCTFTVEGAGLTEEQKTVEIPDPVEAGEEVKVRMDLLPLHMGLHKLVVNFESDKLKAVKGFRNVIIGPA

- IC50 [1]: 200 nM
Structure (SMILES): CC(=O)NCCc1ccc(O)cc1

- IC50 [2]: 610 nM
Structure (SMILES): O=C(O)CCCCCCCc1cc1=O

- Ratio [7]: 3.9 10^4No_unit
- K [8]: 6.3 10^4/M/s
Structure (SMILES): CC(=O)CSc1n(C)c(C)c(C)[n+]1C

- IC50 [13]: 350 nM
Structure (SMILES): CC(=O)CSc1n(C)c(-c2ccccc2)c(-c2ccccc2)[n+]1C

- IC50 [14]: 100000 nM
Structure (SMILES): NCCCNCCCCNCCCN [SPERMINE]

- IC50 [16]: 139 nM
Structure (SMILES): CCCC[C@H](NC(=O)[C@H](CC/C=C/C(=O)OC)NC(=O)c1csc(C)n1)C(=O)N[C@H](C(=O)N[C@@H](CC(C)C)C(=O)N1CCC[C@H]1C(=O)N[C@@H](Cc1c[nH]c2ccccc12)C(N)=O)C(C)CC (stereo partly drawn) (X1-[X2][Nle][Ile(3ξ)]LPW-NH2)

- IC50 [23]: 3100 nM
Structure (SMILES): C[C@@H]1CCC/C=C\C(=O)Cc2cc(O)cc(O)c2C(=O)O1

- IC50 [14]: 100000 nM
Structure (SMILES): NCCCCNCCCN [SPERMIDINE]

- Activity [9]: 50 µg/mL
Structure (SMILES): Cc1ccc(S(=O)(=O)NCCCCCCCCCCC(=O)CCl)cc1

- Activity [9]: 0.2 µg/mL
Structure (SMILES): O=C(CCl)CCCCCNS(=O)(=O)c1ccc(Cl)cc1

- Activity [9]: 15 µg/mL
Structure (SMILES): Cc1ccc(S(=O)(=O)NCCCCNC(=O)CCl)cc1

- IC50 [1]: 118000 nM
- Efficacy [20]: 93%
Structure (SMILES): O=C1C(OS(=O)(=O)O)=C(c2ccc(OS(=O)(=O)O)c(OCCCOc3cc(OS(=O)(=O)O)cc4oc(-c5ccc(OS(=O)(=O)O)c(OS(=O)(=O)O)c5)c(OS(=O)(=O)O)c(=O)c34)c2)OC2C=C(OS(=O)(=O)O)C=C(OCCCOc3cc(OS(=O)(=O)O)cc4oc(-c5ccc(OS(=O)(=O)O)c(OS(=O)(=O)O)c5)c(OS(=O)(=O)O)c(=O)c34)C12 (stereo not drawn)

- IC50 [2]: 26 nM
Structure (SMILES): O=C(CCCCCCCc1cc1=O)NCCc1ccccc1

- IC50 [16]: 102 nM
Structure (SMILES): CCC(C)[C@H](NC(=O)[C@H](CC(C)C)NC(=O)[C@H](CC/C=C/C(=O)OC)NC(=O)c1nc2ccccc2[nH]1)C(=O)N[C@@H](CC(C)C)C(=O)N1CCC[C@H]1C(=O)N[C@@H](Cc1c[nH]c2ccccc12)C(=O)N1CCC[C@H]1C(N)=O (stereo partly drawn) (X3-[X2]L[Ile(3ξ)]LPWP-NH2)

- IC50 [2]: 310 nM
Structure (SMILES): O=C(O)CCCCCCCCCCc1cc1=O

- IC50 [2]: 1900 nM
Structure (SMILES): O=C(O)CCCCCc1cc1=O

The remaining lines, values behind:

Structure (SMILES): CC(=O)CSc1n[n+]2c(C)csc2s1
- Activity (Canis familiaris [3]): 75%
- Activity (Canis familiaris [4]): 1.7 mg
- Time (Canis familiaris [5]): 16.4 min
- Time (Canis familiaris [6]): 44.4 min

Structure (SMILES): Cc1ccc(S(=O)(=O)N(C)CCCCCC(=O)CCl)cc1
- Activity [9]: 0.1 µg/mL

Structure (SMILES): O=[N+]([O-])c1ccccc1S(=O)(=O)NCCCCCCNc1nsc2nccn12
- half-life [10]: 7.8 min
- clearance [11]: > 63.3 mL/min/kg
- concentration at 8 h [12]: 80 µM

Structure (SMILES): NCCCCCNC(=S)Nc1ccccc1
- Ki [15]: 49000 nM

Structure (SMILES): Cc1ccc(S(=O)(=O)NCCCCOC(=O)CCl)cc1
- Activity [9]: 40 µg/mL

Structure (SMILES): Cc1c(C)[n+](C)c(SCC(=O)CSc2nnnn2C)n1C
- Ratio [7]: 4.1 10^6No_unit
- K [8]: 4.9 10^4/M/s

Structure (SMILES): O=c1c(OS(=O)(=O)O)c(-c2ccc(OS(=O)(=O)O)c(OS(=O)(=O)O)c2)oc2cc(OS(=O)(=O)O)cc(OCCOc3cc(-c4oc5cc(OS(=O)(=O)O)cc(OCCOc6cc(OS(=O)(=O)O)cc7oc(-c8ccc(OS(=O)(=O)O)c(OS(=O)(=O)O)c8)c(OS(=O)(=O)O)c(=O)c67)c5c(=O)c4OS(=O)(=O)O)ccc3OS(=O)(=O)O)c12
- Ratio IC50 (Homo sapiens [17]): 9
- Ratio IC50 (Homo sapiens [18]): 26
- Ratio IC50 [19]: 27
- Efficacy [20]: 98%
- Activity [21]: 85%
- Efficacy [22]: 100%

Structure (SMILES): Cc1ccc(S(=O)(=O)NCCCCCC(=O)CCl)cc1
- Activity [9]: 0.05 µg/mL

Structure (SMILES): CCOC(=O)c1nc(C(=O)N[C@@H](CC/C=C/C(=O)OC)C(=O)N[C@@H](CC(C)C)C(=O)N[C@H](C(=O)N[C@@H](CC(C)C)C(=O)N2CCC[C@H]2C(=O)N[C@@H](Cc2c[nH]c3ccccc23)C(=O)N2CCC[C@H]2C(N)=O)C(C)CC)cs1 (stereo partly drawn) (X4-[X2]L[Ile(3ξ)]LPWP-NH2)
- IC50 [16]: 29 nM

Structure (SMILES): CC(=O)CSc1n(C)cc[n+]1C
- Ratio [7]: 1.9 10^6No_unit
- K [8]: 0.35 10^4/M/s

Structure (SMILES): Cc1ccc(C(=O)NCCCCCC(=O)CCl)cc1
- Activity [9]: 0.8 µg/mL

Structure (SMILES): NC(=O)CI
- Ratio [7]: 5 10^3No_unit
- K [8]: 0.8 10^4/M/s
